# Results: PubChem BioAssay AID1208 (EPA DSSTox, 2008)
# Activity calls are given as the source filed them.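 The calls were made as follows: active = at least one rat sex group has a carcinogenic potency value and tumor site recorded; inconclusive = only rat studies were judged inadequate by the national testing program; inactive = no potency or tumor site, with negative rat experiments.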
# Tested on: rat chronic carcinogenicity bioassay, TD50
# Experiment: DSSTox (CPDBAS) Carcinogenic Potency Database Summary Rat Bioassay Results
# Conditions: for outcome: TD50_Rat_Note: no positive results; for Potency: stronger effect = lower value
# Outline: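 The activity score maps log10(1/TD50_Rat_mmol) linearly onto 1–100; actives without a computed TD50, such as mixtures, receive 50. Source data are chronic rat carcinogenicity tests, using the most positive experiment for each sex.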
# [1] = TargetSites_Rat_Female: no positive results
# [2] = TargetSites_Rat_BothSexes: no positive results
smiles,measurement,setting,value
CN(N=O)c1ccc([N+](=O)[O-])cc1,outcome,,inactive; no positive results
Nc1ccccc1-c1ccccc1,outcome,[1],inactive; no positive results
[O-]/[N+](=N\O)c1ccccc1,Potency,"TD50_Rat_Note: TD50 is harmonic mean of more than one positive test, TargetSites_Rat_Female: ear Zymbals gland, liver, stomach, vascular system",8.35 mg/kg/day
Clc1ccc2c(c1)Oc1ccc(Cl)cc1O2,outcome,[1],inactive; no positive results
CN(N=O)c1ccccc1,Potency,"TD50_Rat_Note: TD50 is harmonic mean of more than one positive test, harmonic mean of TD50 includes a value for upper 99% confidence li, TargetSites_Rat_Female: esophagus",0.142 mg/kg/day
O=[N+]([O-])c1ccc(Cl)cc1,outcome,,inactive; no positive results
Cc1ncc[nH]1,Potency,"TD50_Rat_Note: TD50 is harmonic mean of more than one positive test, TargetSites_Rat_Female: thyroid gland",868 mg/kg/day
Clc1ccccc1,Potency,[1],247 mg/kg/day
O.O=S(=O)([O-])[O-].[Mn+2],outcome,[1],inactive; no positive results
NN,Potency,"TD50_Rat_Note: TD50 is harmonic mean of more than one positive test, greater than ten-fold variation among TD50 values for positive res, TargetSites_Rat_Female: liver, lung, nasal cavity",0.613 mg/kg/day
Nc1nc(N)c2nc(-c3ccccc3)c(N)nc2n1,outcome,[1],inactive; no positive results
CC(O)CN(CCO)N=O (stereo not drawn),Potency,"TargetSites_Rat_Female: esophagus, liver, vascular system",1.02 mg/kg/day
CN(C)C(=O)COC(=O)Cc1ccc(OC(=O)c2ccc(N=C(N)N)cc2)cc1,outcome,,inactive; no positive results
Cc1cc(N=Nc2ccccc2C)ccc1N,Potency,"TD50_Rat_Note: TD50 is harmonic mean of more than one positive test, TargetSites_Rat_Female: liver",4.04 mg/kg/day
O=C1C(c2[nH]c3ccc(S(=O)(=O)O)cc3c2O)=Nc2ccc(S(=O)(=O)O)cc21,outcome,[2],inactive
CC(=O)Oc1c(C)c(C)c2c(c1C)CCC(C)(CCCC(C)CCCC(C)CCCC(C)C)O2 (stereo not drawn),outcome,[1],inactive; no positive results
Nc1c(F)c(N)c(F)c(F)c1F,outcome,,inactive; no positive results
Oc1ccccc1-c1ccccc1,Potency,"TD50_Rat_Note: TD50 is harmonic mean of more than one positive test, greater than ten-fold variation among TD50 values for positive res, TargetSites_Rat_Female: urinary bladder",672 mg/kg/day
same,Potency,,232 mg/kg/day
CCOC1=C(O)C(=O)O[C@@H]1[C@@H](O)CO,outcome,[1],inactive
O=[N+]([O-])c1ccc(-c2nc(NCCO)c3ccccc3n2)s1,Potency,TargetSites_Rat_Female: all tumor bearing animals,1.87 mg/kg/day
O=C1C(O)N=C(c2ccccc2F)c2cc(Cl)ccc2N1CCO (stereo not drawn),outcome,[1],inactive; no positive results
ClC(Br)Br,outcome,[1],inactive; no positive results
CC(C)=NNc1ncc(-c2ccc([N+](=O)[O-])o2)s1,Potency,TargetSites_Rat_Female: stomach,6.05 mg/kg/day
Cc1ccc2c(-c3cccc(O)c3)nc(=O)n(C(C)C)c2c1,outcome,[1],inactive; no positive results
C=CCc1ccc(OC)c(OC)c1,Potency,"TD50_Rat_Note: TD50 is harmonic mean of more than one positive test, TargetSites_Rat_Female: liver, stomach",19.7 mg/kg/day
Nc1nnc(-c2ccc([N+](=O)[O-])o2)s1,Potency,"TargetSites_Rat_Female: kidney, lung, mammary gland, stomach",0.662 mg/kg/day
c1ccoc1,Potency,"TD50_Rat_Note: TD50 is harmonic mean of more than one positive test, TargetSites_Rat_Female: hematopoietic system, liver",0.396 mg/kg/day
CC(=O)Nc1cccc2c1Cc1ccccc1-2,outcome,[1],inactive
Nc1ccccc1C(=O)OC/C=C/c1ccccc1,Potency,[1],12100 mg/kg/day
CC(=O)Nc1ccc2c(c1)Cc1ccccc1-2,Potency,"TD50_Rat_Note: TD50 is harmonic mean of more than one positive test, TargetSites_Rat_Female: liver, mammary gland, skin",1.22 mg/kg/day
NS(=O)(=O)c1cc2c(cc1Cl)NCNS2(=O)=O,outcome,[1],inactive; no positive results
CCCC(Cl)CCC(Cl)CCC(Cl)CCC(Cl)CCC(Cl)CCC(Cl)CCC(C)Cl (stereo not drawn),outcome,[1],inactive; no positive results
N[C@@H](Cc1c[nH]c2ccccc12)C(=O)O,outcome,[1],inactive; no positive results
CC1=C(C(=O)OCCN(Cc2ccccc2)c2ccccc2)C(c2cccc([N+](=O)[O-])c2)C(P2(=O)OCC(C)(C)CO2)=C(C)N1 (stereo not drawn),outcome,[1],inactive; no positive results
CN1CCC[C@H]1c1cccnc1,outcome,[1],inactive; no positive results
CCC1(CC)C(=O)N=C(O)NC1=O,Potency,"TD50_Rat_Note: TD50 is harmonic mean of more than one positive test, TargetSites_Rat_Female: no positive results",45.7 mg/kg/day
CCCl,outcome,[1],inactive; no positive results
CNc1ccc(N(CCO)CCO)cc1[N+](=O)[O-],Potency,TargetSites_Rat_Female: lung,702 mg/kg/day
[O]=[Bi],outcome,[2],inactive
ClC(Cl)C(Cl)(Cl)Cl,outcome,[1],inactive; no positive results
CC(O)c1ccccc1 (stereo not drawn),Potency,[1],458 mg/kg/day
C=CC(=O)c1ccc2c(c1)OCO2,outcome,,inactive; no positive results
NC(=O)N/N=C/c1ccc([N+](=O)[O-])o1,Potency,"TD50_Rat_Note: TD50 is harmonic mean of more than one positive test, harmonic mean of TD50 includes a value for upper 99% confidence li, TargetSites_Rat_Female: mammary gland",6.98 mg/kg/day
Nc1cc(Cl)cc(C(=O)O)c1Cl,outcome,[1],inactive; no positive results
NCCCCCCCCCCC(=O)O,Potency,[1],1100 mg/kg/day
O=[N+]([O-])c1ccc(NCCO)c(OCCO)c1,outcome,[1],inactive; no positive results
OC(c1ccc(Cl)cc1)(c1ccc(Cl)cc1)C(Cl)(Cl)Cl,outcome,[1],inactive; no positive results
